Entries after “also recorded” stand apart in the source; their conditions may differ.
T1: CaSR (wildtype) (Homo sapiens, UniProt P41180)
T1 construct: expressed in transfected cells; host or cells: HEK293
T1 sequence (P41180 20-1078): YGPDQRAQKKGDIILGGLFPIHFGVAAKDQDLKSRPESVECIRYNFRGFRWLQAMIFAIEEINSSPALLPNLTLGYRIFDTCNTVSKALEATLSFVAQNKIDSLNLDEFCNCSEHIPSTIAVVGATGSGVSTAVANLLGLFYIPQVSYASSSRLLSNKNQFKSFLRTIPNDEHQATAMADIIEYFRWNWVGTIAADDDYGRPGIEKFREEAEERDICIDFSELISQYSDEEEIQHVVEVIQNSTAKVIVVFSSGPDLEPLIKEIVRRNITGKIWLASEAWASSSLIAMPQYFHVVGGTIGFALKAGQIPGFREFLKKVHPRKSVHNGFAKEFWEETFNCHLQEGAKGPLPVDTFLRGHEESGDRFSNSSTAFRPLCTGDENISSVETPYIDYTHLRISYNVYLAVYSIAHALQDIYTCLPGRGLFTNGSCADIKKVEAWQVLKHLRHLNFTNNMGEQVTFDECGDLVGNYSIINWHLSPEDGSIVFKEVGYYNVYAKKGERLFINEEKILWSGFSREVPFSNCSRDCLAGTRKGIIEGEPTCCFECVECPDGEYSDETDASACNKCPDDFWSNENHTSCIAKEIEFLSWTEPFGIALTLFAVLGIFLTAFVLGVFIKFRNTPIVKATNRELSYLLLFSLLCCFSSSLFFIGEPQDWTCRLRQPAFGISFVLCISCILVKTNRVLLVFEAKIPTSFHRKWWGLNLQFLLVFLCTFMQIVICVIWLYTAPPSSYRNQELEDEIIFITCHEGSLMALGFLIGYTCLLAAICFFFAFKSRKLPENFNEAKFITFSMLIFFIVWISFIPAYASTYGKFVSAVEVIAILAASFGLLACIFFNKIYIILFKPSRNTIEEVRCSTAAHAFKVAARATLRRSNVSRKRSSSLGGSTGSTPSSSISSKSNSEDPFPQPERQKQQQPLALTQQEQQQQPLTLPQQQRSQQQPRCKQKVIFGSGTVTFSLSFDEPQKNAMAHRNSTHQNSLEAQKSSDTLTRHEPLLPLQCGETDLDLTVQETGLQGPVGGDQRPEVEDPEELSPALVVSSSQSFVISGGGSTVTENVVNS

T2: CaSR E297K (Homo sapiens, UniProt P41180, E297K)
T2 construct: expressed in transfected cells; host or cells: HEK293
T2 sequence (P41180 20-1078 E297K): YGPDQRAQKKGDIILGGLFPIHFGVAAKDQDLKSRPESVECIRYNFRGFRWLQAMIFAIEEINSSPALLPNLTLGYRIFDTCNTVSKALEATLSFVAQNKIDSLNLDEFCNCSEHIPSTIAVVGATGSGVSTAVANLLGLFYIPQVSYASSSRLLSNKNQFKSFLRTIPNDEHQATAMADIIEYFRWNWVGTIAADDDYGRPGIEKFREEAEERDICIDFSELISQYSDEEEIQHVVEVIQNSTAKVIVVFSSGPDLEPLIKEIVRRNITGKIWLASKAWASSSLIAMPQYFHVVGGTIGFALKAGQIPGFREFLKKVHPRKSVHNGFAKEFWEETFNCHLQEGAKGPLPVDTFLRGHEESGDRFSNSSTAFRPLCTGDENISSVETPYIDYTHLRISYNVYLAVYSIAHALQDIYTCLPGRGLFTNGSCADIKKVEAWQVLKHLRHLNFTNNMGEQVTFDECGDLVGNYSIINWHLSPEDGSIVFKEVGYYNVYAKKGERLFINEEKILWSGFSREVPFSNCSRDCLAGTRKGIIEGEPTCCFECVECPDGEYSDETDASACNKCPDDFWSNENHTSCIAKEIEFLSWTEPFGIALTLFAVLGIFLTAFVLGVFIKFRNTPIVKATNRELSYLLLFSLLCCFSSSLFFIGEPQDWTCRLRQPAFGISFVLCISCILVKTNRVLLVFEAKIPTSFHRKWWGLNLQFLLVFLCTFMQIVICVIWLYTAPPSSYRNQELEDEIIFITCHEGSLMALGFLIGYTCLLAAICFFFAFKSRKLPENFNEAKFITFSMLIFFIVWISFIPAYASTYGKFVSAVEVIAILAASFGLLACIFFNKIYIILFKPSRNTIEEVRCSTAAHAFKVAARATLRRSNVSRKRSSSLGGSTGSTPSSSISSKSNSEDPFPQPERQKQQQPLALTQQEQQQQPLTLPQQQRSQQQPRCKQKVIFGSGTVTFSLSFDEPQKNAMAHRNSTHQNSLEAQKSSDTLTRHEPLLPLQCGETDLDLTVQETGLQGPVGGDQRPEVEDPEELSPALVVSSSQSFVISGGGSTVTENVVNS


Key:
CaSR (wildtype) = molecular target: T1, CaSR (wildtype); test: Epifluorescence imaging of CaSR mediated ER Ca^2+ dynamics using R-CatchER and Fura-2 in HEK293 cells; type: cell-based; details: for effect on cytosolic and ER Ca^2+ oscillations: Tg 3 μM, 2-APB 100 μM, ionomycin 20 μM with 10 mM Ca^2+; for effect on frequency of ER Ca^2+ oscillations: in the presence of Ca^2+, HEK293 CaSR
Protocol: (§1) Cell culture and transfection. C2C12, HEK293 and HeLa cells were cultured and maintained in Dulbecco's modified Eagle's medium (DMEM) supplemented with 10% fetal bovine serum (FBS) and high glucose (4.5 g/L) at 37° C. R-CatchER, G-CatchER2, G-CEPIA1er, R-CEPIA1er or R-CatchER with GFP-CaSR (wt and mutations) were transfected into cells using Lipofectamine 3000 (Life Technologies), following the manufacturer's instructions. Seed cells onto sterilized 22 mm×40 mm glass microscope slides in 6 cm dishes until about 70% confluency, the day of transfection. The next day, 2 μg of plasmid were mixed with transfection reagent in the reduced serum media Opti-MEM for 4-6 h at 37° C. The media was then replaced with 3 mL of fresh DMEM and incubated at 37° C. for 48 h.
(§2) Epifluorescence imaging of class C GPCR mediated ER Ca^2+ dynamics using R-CatchER and Fura-2. HEK293 Cells transfected with R-CatchER and GFP-CaSR (wt and mutations) were incubated with Fura-2 for 30 mins at 37° C. then washed with 2 mL of physiological Ringer buffer (10 mM HEPES, 140 mM NaCl, 5 mM KCl, 1.2 mM MgCl2, 1.8 mM CaCl2) at pH 7.4). The coverslips were mounted on a bath chamber and placed on the stage of a Leica DM6100B inverted microscope with a Hamamatsu cooled EM-CCD camera and illuminated with a Till Polychrome V Xenon lamp. Cells were illuminated at 340 nm, 380 nm and 569 nm, in real-time, as cells were exposed to different concentrations of Ca^2+, cinacalcet, Phe, TNCA, or NPS2143.

CaSR E297K = molecular target: T2, CaSR E297K; test: Epifluorescence imaging of CaSR mediated ER Ca^2+ dynamics using R-CatchER, E297K mutant; type: cell-based; details: E297K mutant with TNCA (500 μM)
Protocol: as §1
as §2, with “Cells were illuminated at 340 nm, 380 nm and 569 nm, in real-time, as cells were exposed to different concentrations of Ca^2+, cinacalcet, Phe, TNCA, or NPS2143.” left out

[1] = In vitro kinetics by stopped flow spectrofluorometer; type: binding; details: stopped-flow, dead time 2.2 ms, 20° C.
Protocol: In vitro kinetics by stopped flow spectrofluorometer. The kinetics were determined by a Hi-Tech SF-61 stopped-flow spectrofluorometer equipped with the mercury-Xe lamp (10 mm path length, dead time of 2.2 ms) at 20° C. For R-CatchER and its variant or R-CEPIA1er, excitation was at 569 nm and a long-pass 590 nm filter was used. For G-CEPIA1er, a 530 nm long-pass filter was set with excitation at 498 nm, while for MCD1, excitation at 587 nm and a long-pass 600 nm filter were applied. For association kinetics, R-CatchER, R-CatchER variant, MCD1, R-CEPIA1er, and G-CEPIA1er were mixed with the same buffer containing an increasing concentration of Ca^2+. For disassociation kinetics, R-CatchER, R-CatchER variant, MCD1, R-CEPIA1er, and G-CEPIA1er in buffers with concentration of Ca^2+ at Kd, were mixed with 5 mM EGTA or buffer. The raw data were fitted using either single exponential for R-CatchER, R-CatchER variant, and MCD1, or double exponential equations for R-CEPIA1er and G-CEPIA1er.

[2] = Calcium (Ca^2+) binding assay: fluorescence/absorbance titration of purified protein; details: mCherry based indicators, Ca^2+ induced fluorescence change
Protocol: Calcium (Ca^2+) binding assay. 10 μM protein samples of mApple, EGFP, and mCherry variants were titrated with different concentrations of Ca^2+. Data were fitted with a 1:1 binding equation. Fluorescence intensities were collected using a Spectrofluorimeter (Photon Technology International, Inc.) and the absorbance values of Ca^2+-free and Ca^2+-loaded forms were determined using a Shimadzu UV-1601 spectrophotome.
Ca^2+ binding assay. Fluorescence measurements of mApple variants with increasing Ca^2+ concentrations were done in order to obtain the affinity of the sensor for Ca^2+ in vitro. Samples of 10 μM mApple variants with 5 μM EGTA were prepared in triplicate in 1 mL volumes in 10 mM Tris, pH 7.4. The samples were placed in quartz fluorescence cuvettes, and metal ion was titrated into each sample, in a stepwise manner, using 0.1 M and 1 M metal stock solutions. The fluorescence response of the indicator to increasing Ca^2+ concentrations was monitored using a fluorescence spectrophotometer (Photon Technology International, Canada) with the Felix32 fluorescence analysis software. The absorbance spectra before and after titration were obtained using a Shimadzu UV-1601 spectrophotometer.

[3] = pKa determination of the chromophore; type: physicochemical
Protocol: pKa determination. To measure the chromophore pKa of mApple, EGFP, and mCherry variants, the proteins were prepared in buffers (sodium acetate buffer for pH 3-5, MES buffer for pH 5-6, HEPES buffer for pH 6.5-8, TRIS buffer for pH 8.5-9) covering a pH range from 3 to 10. All samples were Incubated at 4° C. overnight, then the following day, the absorbance and fluorescence spectra were collected using a Shimadzu UV-1601 spectrophotometer and the Spectrofluorimeter.

Molecule	effect on cytosolic and ER Ca^2+ oscillations (CaSR (wildtype))	effect on frequency of ER Ca^2+ oscillations (CaSR (wildtype); R-CatchER)	also measured
NCCOB(c1ccccc1)c1ccccc1 [2-APB, 2-Aminoethoxydiphenyl borate]	eliminated; also recorded: elimination		
O=C(O)[C@@H]1Cc2c([nH]c3ccccc23)CN1 [TNCA, L-1,2,3,4-tetrahydronorharman-3-carboxylic acid]		increased the frequency	Hill coefficient (cooperativity) (CaSR E297K): 3.08±0.40
C[C@@H](NCCCc1cccc(C(F)(F)F)c1)c1cccc2ccccc12 [Cinacalcet]		increased the frequency	
CC(C)(Cc1ccc2ccccc2c1)NC[C@@H](O)COc1cccc(Cl)c1C#N [NPS2143]		decreased the frequency	
C/C=C(/C)C(=O)O[C@H]1C(C)=C2[C@H]([C@@H]1OC(=O)CCCCCCC)[C@@](C)(OC(C)=O)C[C@H](OC(=O)CCC)[C@@]1(O)[C@H]2OC(=O)[C@@]1(C)O [Tg, Thapsigargin]	eliminated; also recorded: elimination		
N[C@@H](Cc1ccccc1)C(=O)O [L-Phe]		increased the frequency	Ca^2+ release from the ER, area under the curve (AUC) (CaSR (wildtype); 5 mM L-Phe alone, R-CatchER): 19.54±1.08; EC50 (CaSR (wildtype); in the presence of L-Phe, read out with R-CatchER, read-out: EC50 of ER Ca^2+ mobilization by extracellular Ca^2+): 2700 ± 100 µM
C[C@H](CCC(=O)O)C[C@H](C)C[C@H](C)C(=O)/C=C(\O)[C@H](C)C[C@H](C)C/C=C/[C@@H](C)[C@@H](O)[C@@H](C)[C@@H](O)C[C@@H]1CC[C@@](C)([C@H]2CC[C@@](C)([C@@H](C)O)O2)O1 [ionomycin]	eliminated; also recorded: abolished		
MCD1: mCherry A145E/S147E/N196D/K198D/R216E, best mCherry-based variant, SEQ ID NO: 32 (protein) EEDNMAIIKEFMRFKVHMEGSVNGHEFEIEGEGEGRPYEGTQTAKLKVTKGGPLPFAWDILSPQFMYGSKAYVKHPADIPDYLKLSFPEGFKWERVMNFEDGGVVTVTQDSSLQDGEFIYKVKLRGTNFPSDGPVMQKKTMGWEESEERMYPEDGALKGEIKQRLKLKDGGHYDAEVKTTYKAKKPVQLPGAYNVDIDLDITSHNEDYTIVEQYEEAEGRHSTGGMDELYK			Ca^2+ association rate kon [1]: ≥ 3e+07 M⁻¹ s⁻¹; Fmax/Fmin [2]: 1.13 ± 0.01; apparent pKa ([3]; 0 mM Ca^2+): 4.31±0.01; apparent pKa ([3]; 10 mM Ca^2+): 4.30±0.01

Reference: patent US20240369485A1, “FLUORESCENT SENSOR FOR MONITORING CALCIUM DYNAMICS” (priority 2021, published 2024)
